{"source": "patent US10851165B2", "about": "“Antibody molecules to PD-L1 and methods of treating cancer” (Novartis AG, priority 2014, dated 2020)", "molecules": {"B1": {"name": "BAP058-chi: chimeric mAb: murine VR, human IgG4 (S228P), human κ (antibody, V domains shown)", "VH": "EVQLQQSGAELVKPGASVKLSCKASGYTFTSYWMYWVKQGPGRGLEWIGRIDPNSGSTKYNEKFKNKATLTVDKSSSTAYMQLSSLTSEDSAVYYCARDYRKGLYAMDYWGQGTTVTVSS", "VL": "DIMMTQSHKFMSTSVGDRVSITCKASQDVGTAVAWYQQKPGQSPKLLIYWASTRHTGVPDRFTGSGSGTDFTLTISNVQSEDLADYFCQQYNSYPLTFGQGTKVEIK"}}, "key": {"[1]": {"test_system": "PD-L1 (CD274) in EBC-1 cells", "assay": "PD-L1 surface expression by flow cytometry in EBC-1 cells in vitro", "format": "cell-based, human", "conditions": "EBC-1 cells (NSCLC with cMET amplification) in vitro; 10 nM, 100 nM, 1000 nM; 24, 48 and 72 hours; vs DMSO", "procedure": "EBC-1 cells are non-small cell lung cancer cells with a cMET amplification.\nPD-L1 (CD274) expression was analyzed in cancer cell lines treated with Compound A17. Cells were obtained from ATCC and cultured in vitro following ATCC directions. The cell lines used were previously characterized by the Cancer Cell Line Encyclopedia Project (http://www.broadinstitute.org/ccle/home).\nCells plated in six-well culture plates were treated with the Compound A17 at different concentrations (10 nM, 100 nM, and 1000 nM) for 24, 48 and 72 hours. Equal amount of vehicle (DMSO) was used as a control. Cells were washed with PBS and then harvested using a cell scraper.\nFor each reaction, 0.5-1×10^6 cells were stained with 20 μL of anti-human monoclonal PD-L1-PE antibody, clone M1H1 (BD) for 30-60 minutes at 4° C. Cells were washed twice and data was acquired using a Canto II with FACSDiva software (BD Bioscience). Data analysis was performed using FlowJo software (Tree Star). Mean fluorescence intensity (MFI) was determined by gating on single cells. Unstained cells were used as a gating control."}, "[2]": {"test_system": "PD-L1 (CD274) mRNA in Hs.746.T tumor", "assay": "PD-L1 mRNA by TaqMan RT PCR in Hs.746.T tumor xenograft", "format": "in vivo, human", "conditions": "Hs.746.T tumor (gastric cancer cell with cMET amplification & mutation) xenograft", "procedure": "Hs.746.T cells are gastric cancer cells with a c-MET amplification and a c-MET mutation.\n(§1) Isolated RNA was frozen at −80° C.\n(§2) Each sample was run in triplicate."}, "[3]": {"test_system": "PD-L1 (CD274) mRNA in UKE-1 tumors", "assay": "PD-L1 mRNA by TaqMan RT PCR in UKE-1 tumor xenograft model", "conditions": "tumor xenograft model bearing UKE-1 (MPN line with JAK2V617F mutation)"}, "[4]": {"test_system": "PD-L1 (CD274) mRNA in H3122 cells", "assay": "PD-L1 mRNA by TaqMan RT PCR in H3122 cells in vitro", "format": "cell-based, human", "conditions": "H3122 (NSCLC with ALK translocation) in vitro", "procedure": "H3122 cells are non-small cell lung cancer (NSCLC) cells with an ALK translocation.\nas §1, §2"}, "[5]": {"test_system": "PD-L1 (CD274) mRNA in LOXIMV1 tumors", "assay": "PD-L1 mRNA by TaqMan RT PCR in LOXIMV1 tumor xenograft model", "format": "in vivo, human", "conditions": "tumor xenograft model bearing LOXIMV1 (BRAF mutant melanoma)", "procedure": "as §1, §2"}, "[6]": {"test_system": "PD-L1 (CD274) mRNA in HEYA8 tumors", "assay": "PD-L1 mRNA by TaqMan RT PCR in HEYA8 tumor xenograft model", "format": "in vivo, human", "conditions": "tumor xenograft model bearing HEYA8 (KRAF mutant ovarian cancer)", "procedure": "as §1, §2"}, "huPD-L1": {"target": "T1, huPD-L1 (Homo sapiens, UniProt Q9NZQ7)", "T1 construct": "expressed in transfected cells; host or cells: 300.19 cells", "T1 sequence (Q9NZQ7 19-290)": "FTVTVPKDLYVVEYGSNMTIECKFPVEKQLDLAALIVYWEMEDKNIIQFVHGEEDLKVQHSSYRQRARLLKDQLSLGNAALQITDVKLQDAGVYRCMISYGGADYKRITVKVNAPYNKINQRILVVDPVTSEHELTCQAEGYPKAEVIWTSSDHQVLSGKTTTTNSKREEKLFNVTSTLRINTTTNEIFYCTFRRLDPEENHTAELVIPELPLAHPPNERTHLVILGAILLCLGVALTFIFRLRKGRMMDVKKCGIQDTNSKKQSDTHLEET", "assay": "FACS binding of chimeric and humanized BAP058 mAbs to 300.19 cells expressing huPD-L1", "conditions": "300.19 cell line expressing huPD-L1 on the cell surface", "procedure": "FIG. 3 is a bar graph showing the results of FACS binding analysis for the seventeen humanized BAP058 clones (BAP058-hum01 to BAP058-hum17). The antibody concentrations are 200, 100, 50, 25 and 12.5 ng/ml from the leftmost bar to the rightmost bar for each tested mAb.\nHumanization of BAP058 was performed using a combinatorial library of human germline variable region frameworks (FWs). The technology entails transferring the murine CDRs in frame to a library of human variable regions (VRs) that had been constructed by randomly combining human germ line FW1, FW2 and FW3 sequences. Only one FW4 sequence was used, which is […] (SEQ ID NO: 154) for the heavy chain (HC) (Kabat human HC subgroup I, No. 21) and […] (SEQ ID NO: 186) for the light chain (LC) (Kabat human κ subgroup I, No. 5). The library of VR sequences was fused to human constant region (CR) sequences, human IgG4 (S228P) of HC and human κ CR of LC, and the resulting library of whole IgG mAbs was expressed in CHO cells for screening. Screening was performed with tissue culture supernatants measuring binding avidity on antigen-expressing cells in a whole cell ELISA format or on FACS.\nBinding of the recombinant clone to human PD-L1 was tested using the 300.19 cell line expressing huPD-L1 on the cell surface and FACS analysis."}}}
{"molecule": "CNC(=O)c1ccc(-c2cnc3ncc(Cc4ccc5ncccc5c4)n3n2)cc1F", "note": "[Compound A17, 2-fluoro-N-methyl-4-(7-(quinolin-6-ylmethyl)imidazo[1,2-b][1,2,4]triazin-2-yl)benzamide]", "values": [{"measurement": "surface expression of PD-L1 (flow cytometry)", "setting": "[1]", "result": "significant downregulation of surface expression of PD-L1"}, {"measurement": "PD-L1 expression (mRNA)", "setting": "[2]", "result": "Inhibition of PD-L1 expression (mRNA)"}]}
{"molecule": "N#CC[C@H](C1CCCC1)n1cc(-c2ncnc3[nH]ccc23)cn1", "note": "[Compound A18, Ruxolitinib Phosphate]", "values": [{"measurement": "PD-L1 mRNA", "setting": "[3]", "result": "Downregulation of PD-L1 mRNA"}]}
{"molecule": "Cc1cc(Nc2ncc(Cl)c(Nc3ccccc3S(=O)(=O)C(C)C)n2)c(OC(C)C)cc1C1CCNCC1", "note": "[Compound A23, ceritinib]", "values": [{"measurement": "PD-L1 mRNA", "setting": "[4]", "result": "Inhibition of PD-L1 mRNA"}]}
{"molecule": "COC(=O)N[C@@H](C)CNc1nccc(-c2cn(C(C)C)nc2-c2cc(Cl)cc(NS(C)(=O)=O)c2F)n1", "note": "[Compound A29, Encorafenib]", "values": [{"measurement": "PD-L1 mRNA", "setting": "[5]", "result": "Downregulation of PD-L1 mRNA"}]}
{"molecule": "Cn1cnc2c(F)c(Nc3ccc(Br)cc3F)c(C(=O)NOCCO)cc21", "note": "[Compound A34, Binimetinib]", "values": [{"measurement": "PD-L1 mRNA", "setting": "[6]", "result": "Downregulation of PD-L1 mRNA"}]}
{"molecule": "B1", "values": [{"measurement": "Binding to human PD-L1 (FACS analysis)", "setting": "huPD-L1", "result": "bound well to the antigen"}]}
